According to paper PMC7274485, “A symbiotic bacterium of shipworms produces a compound with broad spectrum anti-apicomplexan activity” (PLoS Pathogens, 2020):
Read-outs that look alike come from different tables or passages of the source.

Legend:
[1] = tested on: extracellular T. gondii tachyzoites; test: Extracellular T. gondii tachyzoites treated 2 hours, washed, then infection of HFF quantified by luciferase; assay type: cell-based, Toxoplasma gondii
Method: Because we had tested the compound against intracellular parasites, it was unclear if trtE was exerting a direct effect on the parasites, or if trtE acted indirectly on the parasites by modulating host cell pathways. […] Growth of the parasites was measured 24 hours later by luciferase expression.
To determine the direct effect of trtE on T. gondii, RH GFP/Luc tachyzoites that had exited from host cells were combined with trtE at varying concentrations and incubated at 37°C and 5% CO2 for 2 hours. Tachyzoites in 0.01% DMSO were run in parallel. The parasites were washed to remove compound and added to 96-well plates containing confluent HFFs. Growth was monitored 24 hours later using Bright-glo Luciferase assay system (Promega). Percent inhibition was calculated as ((luciferase reading DMSO treated parasites—luciferase reading of trtE treated parasites)/ luciferase reading DMSO treated parasites)*100.

[2] = tested on: Sarcocystis neurona; test: Sarcocystis neurona GFP/Luc merozoite growth in bovine turbinate cells, luciferase expression; assay type: cell-based; conditions: 24 hours treatment, read-out: EC50 against S. neurona
Method: Culture of Sarcocystis neurona GFP/Luc merozoites in bovine turbinate cells and in vitro drug response assays were conducted as previously described.
(§1) A. Bovine turbinate cells infected with luciferase expressing Sarcocystis neurona merozoites were treated with trtE for 24 hours and parasite growth evaluated by luciferase expression. […] B. Theileria equi-infected erythrocytes were incubated with trtE or DMSO vehicle control and proliferation was measured after 72 hours by SYBR green incorporation. Percent proliferation was calculated relative to DMSO treated controls. […] (DOCX) Click here for additional data file.

[3] = tested on: Theileria equi; test: Theileria equi 72 hr in vitro parasite growth inhibition assay; assay type: cell-based
Method: The effect of trtE on proliferation of T. equi was evaluated in a 72 hr in vitro parasite growth inhibition assay performed as previously described using the USDA Florida strain of T. equi.
as §1

[4] = tested on: B. bovis; test: Immunofluorescence assay of B. bovis CE11/p2xHA-glmS-gfp-bsd infected erythrocytes; assay type: cell-based, Babesia bovis; conditions: 50 nM trtE, 24 hours
Method: To evaluate the morphological changes in one of the intraerythrocytic parasites, B. bovis CE11/p2xHA-glmS-gfp-bsd parasites were exposed to 50 nM trtE or DMSO for 24 hours then fixed and processed for IFA. This B. bovis line expresses a soluble green fluorescent protein-blasticidin deaminase fusion protein (gfp-bsd),that was labeled with anti-GFP antibodies to visualize the parasite cytoplasm (Fig 3E, green fluorescence). […] Mis-localization of both the soluble gfp-bsd fusion protein (green label) and the RAP-1 protein (red label) was also observed. […]
For all IFAs, the investigator reading the slides and collecting images was blind to the sample treatment. […] 24 hours post treatment, infected cells were fixed with methanol, and parasites detected with rabbit anti-SAG1 antibody for T. gondii or rabbit anti-gp15 for C. parvum as we have described previously. […] This CE11 line is transiently transfected with a plasmid that expresses nanoluciferase from a B. divergens promoter and green fluorescence protein-blasticidin (gfp-bsd) from the selection cassette. […] Cells were incubated with rabbit anti-GFP (GenScript; Piscataway, NJ; cat. #A01388) and mouse monoclonal MBOC79B1 (a gift from G. Palmer) anti-BbRAP-1 protein antibodies, and reactions detected with goat anti-rabbit IgG-Alexafluor 488 and goat anti-mouse IgG-Alexafluor 594 antibodies (Invitrogen; Carlsbad, CA). […]

[5] = tested on: Toxoplasma gondii bradyzoites; test: Very preliminary study against T. gondii bradyzoites; assay type: cell-based; conditions: close to the level of toxicity for the host cells
[6] = Pilot pharmacokinetic study in lambs; assay type: in vivo
Excerpt: A full PK/PD study of trtE in mice and lambs has recently been funded, so in the near future we will be able to answer these questions.

[7] = tested on: HCT-8 colonic cancer cells
Method: (§2) Toxicity was evaluated by measuring cellular ATP concentrations.
(§3) HCT8, HFF and BT cells were seeded in 96-well plates to achieve 20–30% confluence after 24 hours of growth.

[8] = tested on: Human Foreskin fibroblasts; test: Cytotoxicity for host cells, cellular ATP (CellTiter-Glo): HFF
Method: as §2, §3

[9] = 20–30% confluency, 24 hours, cellular ATP

## CC1CCC=CC=CCCC(O)CC(=O)CC2CCC(C)C3(O2)O[B-]24OC(C(=O)O1)C1(OC(CCC1C)CC(=O)CC(O)CCC=CC=CCCC(C)OC(=O)C3O2)O4 (stereo not shown) [trtE, tartrolon E]
[1]; Toxoplasma gondii, RH strain tachyzoites treated 2 hours, washed, growth in HFF after 24 hours, read-out: EC50 against extracellular T. gondii tachyzoites
  EC50: 3.1 nM
[1]; addition of excess K+ ions, no positive control
  Effect of excess K+ ions on trtE activity against extracellular tachyzoites: had no effect
[2]
  EC50: 12.9 nM
[3]; Erythrocyte, infected erythrocytes, 72 hours, read-out: EC50 against T. equi
  EC50: 0.391 nM
[3]; Table 1, rounded, read-out: EC50 against T. equi (Table 1)
  EC50: 0.4 nM
[4]
  Morphology of trtE treated B. bovis (IFA): distinctly rounded morphology
[5]
  Concentration at which trtE was effective against bradyzoites: ~ 1 µM
[6]; in vivo
  Absorption from the intestine: rapidly absorbed from the intestine
[6]; pilot study, lambs
  Tolerability in lambs: tolerated by the animals
[7]; [9]
  TC50 (median toxic concentration) for HCT-8: 6300 nM
[7]; TC50/EC50
  Selectivity Index, C. parvum vs HCT-8: 1636
[8]; [9]
  TC50 (median toxic concentration) for HFF: 7900 nM
[8]; TC50/EC50
  Selectivity Index, T. gondii vs Human Foreskin fibroblasts: 2633
